Like-named read-outs stand apart in the source and are kept apart here. Blank lines part the entries; values can stand above or below the compound they belong to.
How the values were obtained:
tyrosinase [1] = molecular target: T1, tyrosinase (Agaricus bisporus, UniProt C7FF04); experiment: Tyrosinase inhibitory activity using L-DOPA as substrate; assay type: biochemical, mushroom; details: read-out: Inhibition Rate at 64 μM (%)
Method: Compounds c1~c29 were tested for their tyrosinase inhibitory activities according to previous reports. Each compound was dissolved in DMSO and diluted to different concentrations. Tyrosinase and L-DOPA were dissolved in PBS solution (50 mM, pH 6.8). To 140 μL of tyrosinase (final concentration: 66.7 U/mL) solution, 10 μL of compound was added and incubated for 5 min at 25 °C, followed by the addition of 50 µL of L-DOPA (final concentration: 2 mM). Then, absorbance of the mixture was read at 475 nm. The inhibitory activity of each compound was calculated using DMSO as a blank control.
Target sequence in this assay (C7FF04 2-392): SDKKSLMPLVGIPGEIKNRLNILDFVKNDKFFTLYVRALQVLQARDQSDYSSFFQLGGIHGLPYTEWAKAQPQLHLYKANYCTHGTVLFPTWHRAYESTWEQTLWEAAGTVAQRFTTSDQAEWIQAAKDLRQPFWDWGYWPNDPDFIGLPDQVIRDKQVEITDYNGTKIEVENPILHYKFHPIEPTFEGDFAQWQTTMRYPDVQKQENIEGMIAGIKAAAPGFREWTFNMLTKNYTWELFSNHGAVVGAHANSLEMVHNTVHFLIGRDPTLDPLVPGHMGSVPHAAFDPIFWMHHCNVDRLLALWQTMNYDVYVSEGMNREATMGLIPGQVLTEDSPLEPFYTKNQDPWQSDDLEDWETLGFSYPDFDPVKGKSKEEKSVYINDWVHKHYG

tyrosinase [2] = molecular target: T1, tyrosinase; experiment: Inhibition kinetic study (enzyme and substrate kinetics, Lineweaver–Burk); assay type: biochemical, mushroom; details: c27 0~4 μM
Method: The kinetics studies were carried out using the same experimental method as described above. For enzyme kinetics, the absorbance of the mixture containing different concentrations of tyrosinase (final concentration: 66.7 U/mL) and compound c27 (0, 2, 3, and 4 μM) was recorded at 475 nm, respectively. For substrate kinetics, the absorbance of the mixture containing different concentrations of L-DOPA (final concentration: 2, 4, 6 and 8 mM) and compound c27 (0, 2, 3 and 4 μM) was recorded at 475 nm, respectively.
Target sequence in this assay (C7FF04 2-392): as above

tyrosinase [3] = molecular target: T1, tyrosinase; experiment: Three-dimensional fluorescence spectra of tyrosinase–compound mixture; design: species or system mushroom; details: 3D fluorescence
Method: The 3D fluorescence spectra of tyrosinase-compound c27 mixture was measured according to previous reports. To 3 mL of tyrosinase solution (final concentration: 168 μM) in PBS, 10 µL of compound c27 (2 mM) was added and incubated for 5 min. Then, the 3D fluorescence spectra analyses were conducted in room temperature. The excitation and emission wavelengths were 200–600 nm and the slit width was 2.5 nm.
Target sequence in this assay (C7FF04 2-392): as above

tyrosinase [4] = molecular target: T1, tyrosinase; experiment: Fluorescence quenching of tyrosinase (Stern–Volmer); assay type: binding, mushroom; design: purchased Sigma-Aldrich
Method: An amount of 1 μL of compound c27 solution was titrated into 2 mL of tyrosinase and incubated for 5 min. […] The quenching mechanism and parameters were investigated by the Stern–Volmer equation.
Target sequence in this assay (C7FF04 1-392 limits assumed): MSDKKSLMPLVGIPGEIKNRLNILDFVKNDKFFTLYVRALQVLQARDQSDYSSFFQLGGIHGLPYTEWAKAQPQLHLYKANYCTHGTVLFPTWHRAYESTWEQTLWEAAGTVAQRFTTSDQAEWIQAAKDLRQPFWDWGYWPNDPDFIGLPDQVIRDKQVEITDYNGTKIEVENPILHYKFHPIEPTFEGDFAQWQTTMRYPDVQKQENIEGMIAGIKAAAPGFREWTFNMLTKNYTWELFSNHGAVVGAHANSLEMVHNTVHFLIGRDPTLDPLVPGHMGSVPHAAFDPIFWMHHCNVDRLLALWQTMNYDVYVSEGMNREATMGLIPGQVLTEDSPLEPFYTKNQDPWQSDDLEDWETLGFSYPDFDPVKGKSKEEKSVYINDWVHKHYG

tyrosinase [5] = molecular target: T1, tyrosinase; experiment: Circular dichroism spectra, secondary structure contents of tyrosinase; design: purchased Sigma-Aldrich; species or system mushroom
Method: The CD spectra of tyrosinase-compound c27 mixture were measured according to previous reports. To 190 µL of tyrosinase solution (final concentration: 64.65 μM) in PBS, 10 µL of compound c27 (1.28, 2.56, and 3.84 mM) was added and incubated for 5 min. Then, the CD spectra were measured at 195~250 nm at room temperature.
Target sequence in this assay (C7FF04 1-392): as the sequence (C7FF04 1-392 limits assumed) above

[6] = compound concentration 64 μM, L-DOPA substrate

inhibition at 64 µM (tyrosinase [1]; [6]): 2 ± 0.1%
Compound: C=CCc1ccc(OC(=O)/C=C/c2ccc(C(F)(F)F)cc2)c(OC)c1 [c24, 4-allyl-2-methoxyphenyl (E)-3-(4-(trifluoromethyl)phenyl)acrylate]

inhibition at 64 µM (tyrosinase [1]; [6]): 39 ± 3%
Compound: C=CCc1ccc(OC(=O)/C=C/c2cccc(C)c2)c(OC)c1 [c3, 4-allyl-2-methoxyphenyl (E)-3-(m-tolyl)acrylate]

inhibition at 64 µM (tyrosinase [1]; [6]): 76.1%
Compound: C=CCc1ccc(OC(=O)/C=C/c2ccc(O)cc2)c(OC)c1 [c15, 4-allyl-2-methoxyphenyl (E)-3-(4-hydroxyphenyl)acrylate]

inhibition at 64 µM (tyrosinase [1]; [6]): 15 ± 1%
Compound: C=CCc1ccc(OC(=O)/C=C/c2ccc(C)cc2)c(OC)c1 [c4, 4-allyl-2-methoxyphenyl (E)-3-(p-tolyl)acrylate]

inhibition at 64 µM (tyrosinase [1]; [6]): 6 ± 0.5%
Compound: C=CCc1ccc(OC(=O)/C=C/c2ccccc2C(F)(F)F)c(OC)c1 [c22, 4-allyl-2-methoxyphenyl (E)-3-(2-(trifluoromethyl)phenyl)acrylate]

inhibition at 64 µM (tyrosinase [1]; [6]): 47 ± 1%
Compound: C=CCc1ccc(OC(=O)/C=C/c2ccc(O)c(OC)c2)c(OC)c1 [c26, 4-allyl-2-methoxyphenyl (E)-3-(4-hydroxy-3-methoxyphenyl)acrylate]

Compound: C=CCc1ccc(OC(=O)/C=C/c2ccc(Cl)cc2)c(OC)c1 [c7, 4-allyl-2-methoxyphenyl (E)-3-(4-chlorophenyl)acrylate]
inhibition at 64 µM (tyrosinase [1]): 24 ± 1%

inhibition at 64 µM (tyrosinase [1]; [6]): 5 ± 0.1%
Compound: C=CCc1ccc(OC(=O)/C=C/c2ccccc2[N+](=O)[O-])c(OC)c1 [c16, 4-allyl-2-methoxyphenyl (E)-3-(2-nitrophenyl)acrylate]

inhibition at 64 µM (tyrosinase [1]; [6]): 3 ± 0.2%
Compound: C=CCc1ccc(OC(=O)/C=C/c2ccccc2OC)c(OC)c1 [c19, 4-allyl-2-methoxyphenyl (E)-3-(2-methoxyphenyl)acrylate]

inhibition at 64 µM (tyrosinase [1]; [6]): 12 ± 0.3%
Compound: C=CCc1ccc(OC(=O)/C=C/c2ccccc2C)c(OC)c1 [c2, 4-allyl-2-methoxyphenyl (E)-3-(o-tolyl)acrylate]

Compound: C=CCc1ccc(OC(=O)/C=C/c2ccc(O)c(O)c2)c(OC)c1 [c27, 4-allyl-2-methoxyphenyl (E)-3-(3,4-dihydroxyphenyl)acrylate]
inhibition type (tyrosinase [2]; Lineweaver–Burk plots): mixed-type
reversibility of inhibition (tyrosinase [2]; ν versus [E] plots): reversible
reduction of intensity of peak 1 (λex/λem = 280 nm/340 nm) (tyrosinase [3]; Tyr and Trp residues): 21.47%
reduction of intensity of peak 2 (λex/λem = 230 nm/335 nm) (tyrosinase [3]; polypeptide strand transition): 32.71%
number of binding sites (in words) (tyrosinase [4]): one
quenching mechanism (tyrosinase [4]): static
KSV (Stern–Volmer quenching constant) (tyrosinase [4]; 304 K): 47700 L/mol
Kq (quenching rate constant) (tyrosinase [4]; 304 K): 4.77e+12 L/mol
n (number of binding sites) (tyrosinase [4]; 304 K): 0.59
KSV (Stern–Volmer quenching constant) (tyrosinase [4]; 307 K): 43200 L/mol
Kq (quenching rate constant) (tyrosinase [4]; 307 K): 4.32e+12 L/mol
n (number of binding sites) (tyrosinase [4]; 307 K): 0.86
KSV (Stern–Volmer quenching constant) (tyrosinase [4]; 310 K): 42900 L/mol
Kq (quenching rate constant) (tyrosinase [4]; 310 K): 4.29e+12 L/mol
n (number of binding sites) (tyrosinase [4]; 310 K): 0.99
Random Coil (%) (tyrosinase [5]; [Tyrosinase]:[c27] 1:1): 28.23%
α-Helix (%) (tyrosinase [5]; [Tyrosinase]:[c27] 1:1): 7.12%
β-Sheet (%) (tyrosinase [5]; [Tyrosinase]:[c27] 1:1): 49.00%
β-Turn (%) (tyrosinase [5]; [Tyrosinase]:[c27] 1:1): 17.63%
Random Coil (%) (tyrosinase [5]; [Tyrosinase]:[c27] 1:2): 28.12%
α-Helix (%) (tyrosinase [5]; [Tyrosinase]:[c27] 1:2): 9.56%
β-Sheet (%) (tyrosinase [5]; [Tyrosinase]:[c27] 1:2): 49.23%
β-Turn (%) (tyrosinase [5]; [Tyrosinase]:[c27] 1:2): 18.37%
Random Coil (%) (tyrosinase [5]; [Tyrosinase]:[c27] 1:3): 27.94%
α-Helix (%) (tyrosinase [5]; [Tyrosinase]:[c27] 1:3): 9.85%
β-Sheet (%) (tyrosinase [5]; [Tyrosinase]:[c27] 1:3): 49.27%
β-Turn (%) (tyrosinase [5]; [Tyrosinase]:[c27] 1:3): 18.55%
inhibition at 64 µM (tyrosinase [1]; [6]): 81.5%

inhibition at 64 µM (tyrosinase [1]; [6]): 9 ± 0.8%
Compound: C=CCc1ccc(OC(=O)/C=C/c2cccc([N+](=O)[O-])c2)c(OC)c1 [c17, 4-allyl-2-methoxyphenyl (E)-3-(3-nitrophenyl)acrylate]

inhibition at 64 µM (tyrosinase [1]; [6]): 29 ± 3%
Compound: C=CCc1ccc(OC(=O)/C=C/c2ccccc2Cl)c(OC)c1 [c5, 4-allyl-2-methoxyphenyl (E)-3-(2-chlorophenyl)acrylate]

inhibition at 64 µM (tyrosinase [1]; [6]): 10 ± 0.4%
Compound: C=CCc1ccc(OC(=O)/C=C/c2ccccc2Br)c(OC)c1 [c11, 4-allyl-2-methoxyphenyl (E)-3-(2-bromophenyl)acrylate]

inhibition at 64 µM (tyrosinase [1]; [6]): 17 ± 3%
Compound: C=CCc1ccc(OC(=O)/C=C/c2ccccc2F)c(OC)c1 [c8, 4-allyl-2-methoxyphenyl (E)-3-(2-fluorophenyl)acrylate]

inhibition at 64 µM (tyrosinase [1]; [6]): 14 ± 1%
Compound: C=CCc1ccc(OC(=O)/C=C/c2ccc([N+](=O)[O-])cc2)c(OC)c1 [c18, 4-allyl-2-methoxyphenyl (E)-3-(4-nitrophenyl)acrylate]

inhibition at 64 µM (tyrosinase [1]; [6]): 3 ± 0.8%
Compound: C=CCc1ccc(OC(=O)/C=C/c2cccc(Br)c2)c(OC)c1 [c12, 4-allyl-2-methoxyphenyl (E)-3-(3-bromophenyl)acrylate]

inhibition at 64 µM (tyrosinase [1]; [6]): 12 ± 1%
Compound: C=CCc1ccc(OC(=O)C=Cc2ccccc2)c(OC)c1 [c1, 4-allyl-2-methoxyphenyl cinnamate]

inhibition at 64 µM (tyrosinase [1]; [6]): 17 ± 1%
Compound: C=CCc1ccc(OC(=O)/C=C/c2ccc(F)cc2)c(OC)c1 [c10, 4-allyl-2-methoxyphenyl (E)-3-(4-fluorophenyl)acrylate]

inhibition at 64 µM (tyrosinase [1]; [6]): 5 ± 0.2%
Compound: C=CCc1ccc(OC(=O)/C=C/c2cccc(C(F)(F)F)c2)c(OC)c1 [c23, 4-allyl-2-methoxyphenyl (E)-3-(3-(trifluoromethyl)phenyl)acrylate]

inhibition at 64 µM (tyrosinase [1]; [6]): 13 ± 1%
Compound: C=CCc1ccc(OC(=O)/C=C/c2ccc(Br)cc2)c(OC)c1 [c13, 4-allyl-2-methoxyphenyl (E)-3-(4-bromophenyl)acrylate]

inhibition at 64 µM (tyrosinase [1]; [6]): 17 ± 3%
Compound: C=CCc1ccc(OC(=O)/C=C/c2cccc(F)c2)c(OC)c1 [c9, 4-allyl-2-methoxyphenyl (E)-3-(3-fluorophenyl)acrylate]

inhibition at 64 µM (tyrosinase [1]; [6]): 4 ± 1%
Compound: C=CCc1ccc(OC(=O)/C=C/c2ccc3c(c2)OCO3)c(OC)c1 [c29, 4-allyl-2-methoxyphenyl (E)-3-(benzo[d][1,3]dioxol-5-yl)acrylate]

inhibition at 64 µM (tyrosinase [1]; [6]): 67.6%
Compound: C=CCc1ccc(OC(=O)/C=C/c2cccc(O)c2)c(OC)c1 [c14, 4-allyl-2-methoxyphenyl (E)-3-(3-hydroxyphenyl)acrylate]

inhibition at 64 µM (tyrosinase [1]; [6]): 26 ± 1%
Compound: C=CCc1ccc(OC(=O)/C=C/c2ccc(N(C)C)cc2)c(OC)c1 [c25, 4-allyl-2-methoxyphenyl (E)-3-(4-(dimethylamino)phenyl)acrylate]

inhibition at 64 µM (tyrosinase [1]; [6]): 3 ± 0.1%
Compound: C=CCc1ccc(OC(=O)/C=C/c2cccc(OC)c2)c(OC)c1 [c20, 4-allyl-2-methoxyphenyl (E)-3-(3-methoxyphenyl)acrylate]

inhibition at 64 µM (tyrosinase [1]; [6]): 19 ± 0.2%
Compound: C=CCc1ccc(OC(=O)/C=C/c2ccc(Cl)c(F)c2)c(OC)c1 [c28, 4-allyl-2-methoxyphenyl (E)-3-(4-chloro-3-fluorophenyl)acrylate]

inhibition at 64 µM (tyrosinase [1]; [6]): 17 ± 2%
Compound: C=CCc1ccc(OC(=O)/C=C/c2cccc(Cl)c2)c(OC)c1 [c6, 4-allyl-2-methoxyphenyl (E)-3-(3-chlorophenyl)acrylate]

inhibition at 64 µM (tyrosinase [1]; [6]): 7 ± 0.9%
Compound: C=CCc1ccc(OC(=O)/C=C/c2ccc(OC)cc2)c(OC)c1 [c21, 4-allyl-2-methoxyphenyl (E)-3-(4-methoxyphenyl)acrylate]
